Assay: Caco-2 cell permeability
Type: in vitro ADME
Conditions: human, Caco-2 monolayer
Description: forskolin (Sigma 17018) was added and incubated for 5 min at 37 °C with gentle stirring (150 rpm). Reagents (#CISBIO 62AM4PEC) were added and, after incubation for 60 min at rt with gentle stirring (90 rpm) and protected from light, homogeneous time resolved fluorescence (HTRF, λEx: 320 nm; λEm: 620-665 nm) from each well was measured using a Tecan Infinite M1000 Pro. Data were normalized to the maximum effect of dopamine. EC50 and Ema x values were obtained after fitting the d ata to a four -parameter logistic equatio n using Prism V2. 1 (Graph Pad Inc, Chicago, USA) .
Cell permeability. The Caco-2 cell permeability of compound 30 was determined by the Uppsala university optimization and pharmaceutical profiling platform (UDOPP) as described previously26. Briefly, Caco-2 cell monolayers (passage 94-105) were grown on a permeable filter support and used on day 21 after seeding. Prior to the experiment a 10 µM solution of 30 was prepared by dilution of a 10 mM stock solution in DMSO with Hank’ s balanced salt solution (HBSS; 7.4) and warmed to 37 ° C. The Caco-2 filters were washed with pre-warmed HBSS prior to the experiment, and the solution of 30 was thereafter applied on the apical or basolateral side of the monolayer. Permeability was determined at 37 ° C and at pH 7.4 in both the apical and basolateral chamber, with a stirring rate of 500 rpm. […]

Papp A→B at 60 min, 10 µM (10 µM, pH 7.4, 37 °C, apical to basolateral): 3.8 ×10⁻⁶ cm/s
efflux ratio at 60 min, 10 µM (pH 7.4, read-out: efflux ratio (ER)): 8
SMILES: CCCN(CCCCC(=O)Nc1nc2c(OC)ccc(OC)c2s1)C1Cc2ccccc2C1 [Compound 30]
